From PubChem BioAssay AID248 (DTP/NCI, 2004)
Where “and” joins values, the source holds several entries; their conditions need not be identical. Equal entries are not always repeated. Inconclusive results and toxic doses are left out. No stated cut-off is given here; in the data, active means T/C of 150% or more; inactive means T/C below 125%.

Test system: L1210 leukemia ip in BDF1 mice, survival T/C
Assay: NCI In Vivo Anticancer Drug Screen. Data for tumor model L1210 Leukemia (intraperitoneal) in B6D2F1 (BDF1) mice
Details: endpoint: mean survival time, higher = longer survival
In short: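 Value reflects the ratio of survival in compound-treated mice to survival in vehicle-treated controls, with both groups carrying the same transplanted tumor.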

Measured: T/C

Nc1n[nH]c(N)n1
inactive: dose: 12.5 mg/kg/injection, schedule: Q#A X020 (ip), vehicle: saline 105 % of control | dose: 25.0 mg/kg/injection, schedule: Q01DX010 (ip), vehicle: saline 103 % of control | dose: 25.0 mg/kg/injection, schedule: Q#A X020 (ip), vehicle: saline 109 % of control | dose: 28.0 mg/kg/injection, schedule: Q03HX040 (ip), vehicle: water 105 % of control | dose: 32.0 mg/kg/injection, schedule: Q01DX015 (ip), vehicle: saline 94 % of control | dose: 48.0 mg/kg/injection, schedule: Q## X008 (ip), vehicle: saline 101 % of control | dose: 50.0 mg/kg/injection, schedule: Q01DX010 (ip), vehicle: saline 110 % of control | dose: 50.0 mg/kg/injection, schedule: Q06HX068 (ip), vehicle: water 106 % of control | dose: 56.0 mg/kg/injection, schedule: Q03HX008 (ip), vehicle: water 103 % of control | dose: 56.0 mg/kg/injection, schedule: Q03HX024 (ip), vehicle: water 111 % of control | dose: 63.0 mg/kg/injection, schedule: Q01DX015 (ip), vehicle: saline 102 % of control | dose: 96.0 mg/kg/injection, schedule: Q## X008 (ip), vehicle: saline 102 % of control | dose: 100.0 mg/kg/injection, schedule: Q01DX009 (ip), vehicle: saline 108 % of control | dose: 100.0 mg/kg/injection, schedule: Q01DX009 (sc), vehicle: saline 102 % of control | dose: 100.0 mg/kg/injection, schedule: Q06HX068 (ip), vehicle: water 110 % of control | dose: 100.0 mg/kg/injection, schedule: Q#A X034 (ip), vehicle: water 107 % of control | dose: 111.0 mg/kg/injection, schedule: Q01DX Z (ip), vehicle: methylcellulose (MC) 100 % of control | dose: 112.0 mg/kg/injection, schedule: Q12HX018 (ip), vehicle: water 111 % of control | dose: 125.0 mg/kg/injection, schedule: Q01DX015 (ip), vehicle: saline 110 % of control | dose: 125.0 mg/kg/injection, schedule: Q03HX008 (oral), vehicle: water 107 % of control | dose: 125.0 mg/kg/injection, schedule: Q03HX024 (oral), vehicle: water 105 % of control | dose: 192.0 mg/kg/injection, schedule: Q## X008 (ip), vehicle: saline 104 % of control | dose: 200.0 mg/kg/injection, schedule: Q01DX001 (ip), vehicle: saline 104 % of control and 107 % of control | dose: 200.0 mg/kg/injection, schedule: Q01DX001 (sc), vehicle: saline 104 % of control | dose: 200.0 mg/kg/injection, schedule: Q01DX006 (iv), vehicle: saline 105 % of control | dose: 200.0 mg/kg/injection, schedule: Q01DX009 (sc), vehicle: saline 108 % of control | dose: 200.0 mg/kg/injection, schedule: Q01DX010 (ip), vehicle: saline 98 % of control | dose: 200.0 mg/kg/injection, schedule: Q01DX017 (ip), vehicle: water 111 % of control | dose: 200.0 mg/kg/injection, schedule: Q## X003 (ip), vehicle: saline 110 % of control | dose: 200.0 mg/kg/injection, schedule: Q## X040 (ip), vehicle: saline 104 % of control | dose: 225.0 mg/kg/injection, schedule: Q12HX010 (ip), vehicle: water 107 % of control | dose: 250.0 mg/kg/injection, schedule: Q03HX008 (oral), vehicle: water 107 % of control | dose: 250.0 mg/kg/injection, schedule: Q03HX024 (oral), vehicle: water 102 % of control | dose: 256.0 mg/kg/injection, schedule: Q## X088 (ip), vehicle: other 98 % of control | dose: 384.0 mg/kg/injection, schedule: Q## X008 (ip), vehicle: saline 103 % of control | dose: 395.0 mg/kg/injection, schedule: Q01DX001 (ip), vehicle: saline 101 % of control and 110 % of control | dose: 400.0 mg/kg/injection, schedule: Q01DX001 (ip), vehicle: saline 106 % of control | dose: 400.0 mg/kg/injection, schedule: Q01DX001 (oral), vehicle: water 102 % of control | dose: 400.0 mg/kg/injection, schedule: Q01DX001 (sc), vehicle: saline 102 % of control | dose: 400.0 mg/kg/injection, schedule: Q01DX009 (sc), vehicle: saline 108 % of control | dose: 400.0 mg/kg/injection, schedule: Q01DX010 (ip), vehicle: saline 104 % of control | dose: 400.0 mg/kg/injection, schedule: Q## X003 (ip), vehicle: saline 106 % of control | dose: 400.0 mg/kg/injection, schedule: Q## X024 (ip), vehicle: saline 100 % of control | dose: 400.0 mg/kg/injection, schedule: Q## X040 (ip), vehicle: saline 108 % of control | dose: 450.0 mg/kg/injection, schedule: Q01DX001 (ip), vehicle: water 103 % of control | dose: 500.0 mg/kg/injection, schedule: Q01DX001 (ip), vehicle: water 97 % of control and 102 % of control | dose: 500.0 mg/kg/injection, schedule: Q01DX001 (oral), vehicle: water 104 % of control | dose: 500.0 mg/kg/injection, schedule: Q01DX005 (oral), vehicle: water 101 % of control | dose: 500.0 mg/kg/injection, schedule: Q01DX Z (ip), vehicle: methylcellulose (MC) 110 % of control | dose: 500.0 mg/kg/injection, schedule: Q03HX008 (oral), vehicle: water 108 % of control | dose: 500.0 mg/kg/injection, schedule: Q04DX003 (oral), vehicle: water 105 % of control | dose: 500.0 mg/kg/injection, schedule: Q## X006 (oral), vehicle: water 102 % of control | dose: 592.0 mg/kg/injection, schedule: Q01DX001 (ip), vehicle: saline 105 % of control and 108 % of control | dose: 675.0 mg/kg/injection, schedule: Q06HX016 (ip), vehicle: saline 100 % of control | dose: 768.0 mg/kg/injection, schedule: Q## X008 (ip), vehicle: saline 111 % of control | dose: 800.0 mg/kg/injection, schedule: Q01DX001 (ip), vehicle: saline 102 % of control and 105 % of control and 106 % of control | dose: 800.0 mg/kg/injection, schedule: Q01DX001 (oral), vehicle: water 105 % of control | dose: 800.0 mg/kg/injection, schedule: Q01DX001 (sc), vehicle: saline 110 % of control | dose: 800.0 mg/kg/injection, schedule: Q## X003 (ip), vehicle: saline 108 % of control | dose: 800.0 mg/kg/injection, schedule: Q## X024 (ip), vehicle: saline 106 % of control | dose: 806.0 mg/kg/injection, schedule: Q01DX001 (ip), vehicle: saline 104 % of control | dose: 806.0 mg/kg/injection, schedule: Q08DX002 (ip), vehicle: saline 101 % of control | dose: 888.0 mg/kg/injection, schedule: Q01DX001 (ip), vehicle: saline 106 % of control and 111 % of control | dose: 900.0 mg/kg/injection, schedule: Q01DX001 (ip), vehicle: water 104 % of control | dose: 900.0 mg/kg/injection, schedule: Q03HX024 (ip), vehicle: saline 95 % of control | dose: 900.0 mg/kg/injection, schedule: Q#A X018 (ip), vehicle: water 94 % of control | dose: 1000.0 mg/kg/injection, schedule: Q01DX001 (ip), vehicle: water 101 % of control and 103 % of control | dose: 1000.0 mg/kg/injection, schedule: Q01DX001 (oral), vehicle: water 98 % of control | dose: 1000.0 mg/kg/injection, schedule: Q04DX003 (oral), vehicle: water 107 % of control | dose: 1200.0 mg/kg/injection, schedule: Q01DX001 (ip), vehicle: saline 105 % of control | dose: 1203.0 mg/kg/injection, schedule: Q01DX001 (ip), vehicle: saline 107 % of control | dose: 1203.0 mg/kg/injection, schedule: Q04DX003 (ip), vehicle: saline 110 % of control | dose: 1203.0 mg/kg/injection, schedule: Q08DX002 (ip), vehicle: saline 102 % of control | dose: 1333.0 mg/kg/injection, schedule: Q01DX001 (ip), vehicle: saline 106 % of control and 110 % of control | dose: 1600.0 mg/kg/injection, schedule: Q01DX001 (ip), vehicle: saline 107 % of control and 110 % of control | dose: 1600.0 mg/kg/injection, schedule: Q01DX001 (oral), vehicle: water 108 % of control | dose: 1600.0 mg/kg/injection, schedule: Q01DX001 (sc), vehicle: saline 107 % of control | dose: 1600.0 mg/kg/injection, schedule: Q01DX Z (oral), vehicle: saline 109 % of control | dose: 1796.0 mg/kg/injection, schedule: Q01DX001 (ip), vehicle: saline 109 % of control | dose: 1796.0 mg/kg/injection, schedule: Q08DX002 (ip), vehicle: saline 107 % of control | dose: 1800.0 mg/kg/injection, schedule: Q01DX001 (ip), vehicle: water 103 % of control | dose: 2000.0 mg/kg/injection, schedule: Q01DX001 (ip), vehicle: saline 110 % of control | dose: 2000.0 mg/kg/injection, schedule: Q01DX001 (ip), vehicle: water 101 % of control and 103 % of control | dose: 2000.0 mg/kg/injection, schedule: Q01DX001 (oral), vehicle: water 96 % of control | dose: 2000.0 mg/kg/injection, schedule: Q01DX Z (ip), vehicle: saline 96 % of control | dose: 2000.0 mg/kg/injection, schedule: Q01DX Z (ip), vehicle: water 94 % of control | dose: 2680.0 mg/kg/injection, schedule: Q08DX002 (ip), vehicle: saline 110 % of control | dose: 4000.0 mg/kg/injection, schedule: Q01DX001 (ip), vehicle: water 108 % of control | dose: 4000.0 mg/kg/injection, schedule: Q## X006 (oral), vehicle: water 107 % of control
